Consider six compounds from paper PMC11025096, “Universal Glycosyltransferase Continuous Assay for Uniform Kinetics and Inhibition Database Development and Mechanistic Studies Illustrated on ST3GAL1, C1GALT1, and FUT1” (ACS Omega, 2024).

The target of assay [1] is T1, FUT1 (Homo sapiens, UniProt P19526).
T1 construct: pGEn2 construct expressed in HEK293F; tag removed with TEV protease
T1 sequence (P19526 1-365): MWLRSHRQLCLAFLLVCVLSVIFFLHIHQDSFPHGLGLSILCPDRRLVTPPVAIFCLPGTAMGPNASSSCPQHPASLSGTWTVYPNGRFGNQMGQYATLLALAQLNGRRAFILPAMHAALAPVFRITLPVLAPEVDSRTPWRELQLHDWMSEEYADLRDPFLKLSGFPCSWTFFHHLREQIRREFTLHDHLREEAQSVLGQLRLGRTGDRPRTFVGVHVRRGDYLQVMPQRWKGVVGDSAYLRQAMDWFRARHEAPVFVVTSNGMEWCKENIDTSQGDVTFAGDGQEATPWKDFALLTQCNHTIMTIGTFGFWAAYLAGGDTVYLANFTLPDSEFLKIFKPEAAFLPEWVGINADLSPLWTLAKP
Nature of the assay: donor at fixed saturating concentration in UGC continuous coupled assay (NDK/PK/LDH). The assay is classed as biochemical.

A further assay deals with T2, CMK (cytidylate kinase) (Escherichia coli, UniProt P0A6I0).
T2 sequence (P0A6I0 1-227): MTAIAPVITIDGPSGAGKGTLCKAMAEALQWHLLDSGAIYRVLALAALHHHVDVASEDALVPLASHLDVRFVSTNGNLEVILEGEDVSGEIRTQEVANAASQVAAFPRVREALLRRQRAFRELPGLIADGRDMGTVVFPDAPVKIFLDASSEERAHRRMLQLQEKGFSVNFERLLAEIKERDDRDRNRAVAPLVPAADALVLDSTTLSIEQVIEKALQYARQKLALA
The experiment in a line: coupled PK/LDH NADH fluorescence progress curves over CMP serial dilution. The assay is classed as biochemical.

Assay [2] deals with T3, ST3GAL1 (Homo sapiens, UniProt Q11201).
T3 construct: pGEn2 construct expressed in HEK293F; tag removed with TEV protease
T3 sequence (Q11201 1-340): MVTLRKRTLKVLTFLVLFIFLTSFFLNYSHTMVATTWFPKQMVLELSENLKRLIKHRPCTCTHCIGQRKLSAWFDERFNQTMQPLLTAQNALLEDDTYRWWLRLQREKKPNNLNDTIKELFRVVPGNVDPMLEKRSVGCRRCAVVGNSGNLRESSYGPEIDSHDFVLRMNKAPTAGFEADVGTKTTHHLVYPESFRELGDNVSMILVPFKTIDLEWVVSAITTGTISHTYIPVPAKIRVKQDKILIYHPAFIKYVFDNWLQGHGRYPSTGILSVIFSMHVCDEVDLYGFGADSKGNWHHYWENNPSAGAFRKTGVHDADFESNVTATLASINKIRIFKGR
The experiment in a line: Michaelis-Menten kinetics, UGC continuous coupled assay (CMK/NDK/PK/LDH). The assay is classed as biochemical.

For assay [3], the target named is T3, ST3GAL1. The experiment in a line: UGC continuous coupled NADH fluorescence assay, […] min enzyme-inhibitor preincubation, dose response. The class given is biochemical.
In assay [4] the target is T1, FUT1. The description is as above. The assay is classed as biochemical.
The next assay addresses T4, C1GALT1 (Homo sapiens, UniProt Q9NS00).
T4 construct: pGEn2 construct expressed in HEK293F (coexpressed with chaperone C1GALT1C1); tag removed with TEV protease
Nature of the assay: biochemical. Also on record: UGC coupled continuous assay, NADH fluorescence depletion, 30 min enzyme-inhibitor preincubation, 37 °C. The following applies: acceptor 2x Km, donor 0.5x Km; rate at 5 min; extrapolated; read-out: Log IC50 (M) C1GALT1 (converted). Here is the method:
(§1) Soyasaponin 1 stock solution was prepared at 1.25 mM in 2% (v/v) Triton X-100 and 10% (v/v) DMSO. Inhibition assays were performed following a method similar to that used in the kinetics study. The master mixtures included all of the components except for the inhibitor and the enzyme. A 2-fold serial dilution from the inhibitor’s stock solution was prepared in a blank solution containing 2 and 10% (v/v) Triton X-100 and DMSO, respectively. The enzyme and the inhibitor were mixed, distributed to the wells, and preincubated for 30 min at 37 °C. A 10 min incubation period was also carried out at 37 °C for the master mixture, and the reaction was initiated by adding the master mixture to the wells. […] The effect of the activity percentage was calculated at each concentration of the inhibitor as follows [drawing 1] where SI, S100, S0 are the absolute values of the slopes from the progress curves of the reaction with inhibitor, […] respectively. IC50 and pIC50 (−log IC50 in molar concentration) values were calculated as depicted in Tables S3 and S4 (Supporting Information). Rates for the comparative dose response were calculated for each enzyme at the last time point where the uninhibited reaction maintained its linearity. […] Time and dose dependent inhibition was measured at varying concentrations of Soyasaponin 1. […]

The target in assay [5] is T3, ST3GAL1. Nature of the assay: biochemical. Also on record: UGC coupled continuous assay, NADH fluorescence depletion, 30 min enzyme-inhibitor preincubation, 37 °C. The following applies: acceptor and donor at Km; 20 min; read-out: Log IC50 (M) 20 Minutes (converted). Here is the method: as §1
Assay [6] deals with T1, FUT1. The experiment in a line: Michaelis-Menten kinetics, UGC continuous coupled assay (NDK/PK/LDH). The class given is biochemical.

T4 sequence (Q9NS00 whole entry): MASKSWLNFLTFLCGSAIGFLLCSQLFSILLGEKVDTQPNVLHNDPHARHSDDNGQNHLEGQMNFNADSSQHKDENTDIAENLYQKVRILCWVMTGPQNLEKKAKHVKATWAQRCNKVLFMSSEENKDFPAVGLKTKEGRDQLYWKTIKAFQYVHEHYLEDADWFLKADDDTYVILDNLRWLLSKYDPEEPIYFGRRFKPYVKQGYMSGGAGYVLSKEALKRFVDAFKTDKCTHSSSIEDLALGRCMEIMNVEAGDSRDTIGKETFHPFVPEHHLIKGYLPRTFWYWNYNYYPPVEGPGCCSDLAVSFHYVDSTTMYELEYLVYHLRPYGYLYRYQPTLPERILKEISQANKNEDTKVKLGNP

For `C[C@@H]1O[C@H](OP(=O)(O)OP(=O)(O)OC[C@H]2O[C@@H](n3cnc4c(=O)[nH]c(N)nc43)[C@H](O)[C@@H]2O)[C@@H](O)[C@H](O)[C@@H]1O` [GDP-Fuc], on FUT1 [1], the “donor at fixed saturating concentration in UGC continuous coupled assay (NDK/PK/)” value is “Kinetics parameters for FUT1 were calculated with a saturation concentration of the donor GDP-Fuc and variable concentrations of the acceptors”. In the case of `Nc1ccn([C@@H]2O[C@H](COP(=O)(O)O)[C@@H](O)[C@H]2O)c(=O)n1` [CMP], the “coupled PK/LDH NADH fluorescence progress curves over CMP serial dilution” value at CMK (cytidylate kinase) is on record as “the initial instant phosphorylation of CMP to CDP via CMK followed by a slower phosphorylation of CDP via PK”.

With `CC(=O)N[C@H]1C(O)O[C@H](CO)[C@H](O)[C@@H]1O[C@@H]1O[C@H](CO)[C@H](O)[C@H](O)[C@H]1O` (stereo partly drawn) [galacto-N-biose], at ST3GAL1 [2], the “Michaelis-Menten kinetics, UGC continuous coupled assay (CMK/NDK/PK/LDH)” value is 195 min^–1 (kcat).

Take `C[C@@H]1O[C@@H](O[C@H]2[C@H](O[C@H]3[C@H](O[C@H]4CC[C@@]5(C)[C@@H](CC[C@]6(C)[C@@H]5CC=C5[C@@H]7CC(C)(C)C[C@@H](O)[C@]7(C)CC[C@]56C)[C@@]4(C)CO)O[C@H](C(=O)O)[C@@H](O)[C@@H]3O)O[C@H](CO)[C@H](O)[C@@H]2O)[C@H](O)[C@H](O)[C@H]1O` [Soyasaponin1]: the IC50 is 31 µM on ST3GAL1 [3], 52 µM against FUT1 [4], 0.000367 M at C1GALT1 and 5.87e-05 M on ST3GAL1 [5]. `CC(=O)N[C@H]1C(O)O[C@H](CO)[C@@H](O)[C@@H]1O[C@@H]1O[C@H](CO)[C@H](O)[C@H](O)[C@H]1O` (stereo partly drawn) [lacto-N-biose]: the “Michaelis-Menten kinetics, UGC continuous coupled assay (NDK/PK/LDH)” value on FUT1 [6] is reported as 357 min^–1 (kcat). The same measure, in the same setting: under `CC(=O)N[C@H]1[C@@H](OCc2ccccc2)O[C@H](CO)[C@H](O)[C@@H]1O[C@@H]1O[C@H](CO)[C@H](O)[C@H](O)[C@H]1O` [T-Bn] stands 152 min^–1 (kcat).

For orientation: IC50 means the concentration at which inhibition is half-maximal.
